These results are taken from patent publication US20170080049A1, “MEDICINE AGAINST GROWTH FAILURE INDUCED BY ADMINISTRATION OF STEROID” (DAIICHI SANKYO COMPANY, LIMITED, priority 2014, published 2017).

Data set [1] has as its system rat growth failure induced by dexamethasone. In words: Action comparing study between CNP derivative (A) and human growth hormone on rat growth failure induced by dexamethasone (Example 6). In kind it is in vivo. The note with it: 2 mL/kg s.c. once a day 28 days, n=4 or 5. The procedure: Osmotic pumps (MINI-OSMOTIC PUMP Model 2004, available from DURECT CORPORATION, flow rate: 0.25 μL/hr, for 28 days) were charged with a 0.67 mg/mL solution of dexamethasone (dexamethasone injection “KS”, available from Kyoritsuseiyaku Corporation), and one osmotic pump was embedded in the hypoderm of the back of each 4-week-old male Crlj:WI (Wistar) rat (5 animals/group, Group 2 to Group 4, total of 15 animals). For Group 3, a 1 mg/mL solution of CNP derivative (A) (medium: 0.03 mol/L acetate buffer (pH 4.0)/1% benzyl alcohol/10% sucrose), and for Group 4, a 1 mg/mL solution of human-type growth hormone preparation (somatropin BS subcutaneous injection 10 mg “SANDOZ”) diluted with a phosphate buffer was administered to the hypoderm of the back of five rats, respectively, in a volume of 2 mL/kg once a day for 28 days. No substance was administered to the normal control group (5 animals, Group 1). On the final day, after measuring the body weight, the body length and the tail length, the blood was collected from the abdominal aorta and the animal was caused to die under isoflurane anesthesia, the left femur was extracted and the bone length was measured, and then a histopathological specimen of the epiphyseal region was prepared.

The subject of data set [2] is dexamethasone-induced rat growth failure model. Kind of data set: Combined administration study of human-type CNP-53 or various CNP derivatives in dexamethasone-induced rat growth failure model (Example 3). In kind it is in vivo. The note with it: dexamethasone 0.67 mg/mL pump alone or combined with 15 mg/mL pump of the CNP peptide, 5-week-old male Wistar rat, n=5. The procedure:
Osmotic pumps (MINI-OSMOTIC PUMP Model 2004, available from DURECT CORPORATION, flow rate: 0.25 μL/hr, for 28 days) were charged with 0.67 mg/mL solution of dexamethasone (dexamethasone injection “KS”, available from Kyoritsuseiyaku Corporation) and one osmotic pump was embedded in the hypoderm of the back of each 5-week-old male Crlj:WI (Wistar) rat (5 animals/group, Groups 2 to 6, a total of 25 animals). At the same time, one osmotic pump (the same as above) charged with a 15 mg/mL solution of CNP derivative (A) in Group 3, human-type CNP-53 in Group 4, CNP derivative (B) in Group 5 and CNP derivative (C) in Group 6 was embedded in the hypoderm of the back simultaneously. No substance was administered to the normal control group (Group 1, 5 animals). Then the animals were fed for 28 days, and transitions of the body weight, the body length and the tail length were measured. On the final day, the blood was collected from the abdominal aorta and the animals were caused to die under isoflurane anesthesia, and plasma was separated from the collected blood and the cholesterol concentration was determined by using a “LabAssay (trademark) cholesterol” (available from Wako Pure Chemical Industries, Ltd.). After collecting the blood and causing the animals to die, the right femur and thymus were extracted, and the length of the right femur and the weight of the thymus were measured.

[3] abbreviates: dexamethasone 0.67 mg/mL pump alone or with CNP derivative (A) or human-type growth hormone 1 mg/mL.

Regarding `C[C@@H]1C[C@H]2[C@@H]3CCC4=CC(=O)C=C[C@]4(C)[C@@]3(F)[C@@H](O)C[C@]2(C)[C@@]1(O)C(=O)CO` [Dexamethasone, dexamethasone], the “Body weight at dissection” value in data set [1] (dexamethasone 0.67 mg/mL pump 28 days alone or with CNP derivative (A) or human-type growth hormone 1 mg/mL, 4-week-old male Wistar rat, mean ± SD) turned out to be 245 ± 12 g. For the same compound, in data set [1] (setting [3]), the “Body length at dissection” value is reported as 199 ± 4 mm; the “Body length, variation from pre-administration value (Δ value)” value is given as “(46.8 ± 4.7) mm”; the “Body weight, variation from pre-administration value (Δ value)” value is given as “(139 ± 13) g”; the “Left femur length at dissection” value is 31.3 ± 0.2 mm. For the same compound, in data set [1] (setting [3]), the “Tail length at dissection” value amounted to 197 ± 5 mm and the “Tail length, variation from pre-administration value (Δ value)” value is reported as “(65.0 ± 4.9) mm”. Moreover, in data set [2] (0.25 μL/hr continuous s.c. 28 days, mean ± SD), the “Body weight at dissection” value was 286 ± 17 g. In data set [2] (continuous s.c. 28 days), the “Body length at dissection” value was 199 ± 2 mm; the “Body length, variation from preadministration value (Δ value)” value is “(23.8 ± 2.4) mm”; the “Body weight, variation from preadministration value (Δ value)” value is on record as “(118 ± 15) g”; the “Right femur length at dissection” value came out at 32.7 ± 0.3 mm. Besides, in data set [2] (continuous s.c. 28 days), the “Tail length at dissection” value was 202 ± 3 mm; the “Tail length, variation from preadministration value (Δ value)” value is on record as “(35.2 ± 3.7) mm”; the “thymus body weight ratio” value was “[0.11 ± 0.02%]”; the “thymus weight at dissection” value was found to be 0.36 ± 0.04 g.
